Laboratory results reported in patent publication US10292992B2, “Selective high-affinity polydentate ligands and methods of making such” (LAWRENCE LIVERMORE NATIONAL SECURITY, LLC, priority 2008, dated 2019).
“Also recorded” adds a separate entry of the source.

What was measured:
HLA-DR10 protein = test: Surface plasmon resonance binding of SHALs to isolated HLA-DR10 protein; design: species or system human
From the text: In certain embodiments, the binding affinities of the best SHALs can be estimated by mass spectrometry of the SHAL-target complexes, followed by a more accurate surface plasmon resonance (SPR) spectroscopy (Shuck (1997) Annu Rev Biophys Biomol Struct., 26: 541-566; Van Regenmortal (2001) Cell Mol Life Sci., 58: 794-800) measurement of the SHAL-target binding affinity using for example, the IASYS Plus or BiaCore instruments. In order to perform the SPR measurement, biotin can be added to the linker through a third functional group (as described above) and the SHAL can be bound to commercially available streptavidin coated chips. […] Experiments can be performed to test the selectivity of SHAL binding to targets in the presence of molecules related to the targets. Thus, for example, where the SHAL is directed to HLA-DR10, the SHAL can be evaluated for its ability to bind target molecules in the presence of Raji cell surface proteins extracted and separated by affinity chromatography. After treating the gel with the biotinylated SHAL and rinsing out excess unbound SHAL, the location of the bound SHAL can be detected by staining with Rhodamine tagged streptavidin.
Protein binding experiments were conducted using surface plasma resonance on a Biacore 3000 (Biacore, Piscataway, N.J.) at 25° C. A research grade streptavidin immobilized chip (SA chip, Biacore) was preconditioned and normalized according to the manufacturers instructions. Biotin labeled SHALs were dissolved in DMSO and diluted in 1.05×PBS (Biacore) to a final concentration of 1×PBS pH 7.4, 5% DMSO, to match the running buffer. These SHALs were injected over the flow cell to yield a surface density of 500-1000RU (response units). Biotin (50 μM E-Z Link Amine-PEO2-Biotin, Pierce) was injected over all cells for 1 minute at 20 μl/min as a block to reduce non-specific binding. One flow cell was used as a reference cell and a different SHAL was immobilized on each of the three other cells.
Experiments measuring the binding of HLA-DR10 to the SHALs were carried out at a flow rate of 30 μl/minute in PBS pH7.4 running buffer using all 4 flow cells. HLA-DR10 isolated from Raji cells (Rose et al. (1996) Cancer Immunol Immunother 43:26-30) was diluted in running buffer to a final concentration ranging from […] and a series of concentrations were run randomly in triplicate. Protein was injected for 3 minutes, allowed to dissociate for 5 minutes followed by regeneration of the surface using a 1 minute injection of 0.1% sodium dodecylsulfate (SDS) followed by a washing step with a 2 minute injection of running buffer. The data, which were double referenced by subtracting the blank reference surface and an average of 5 blank injections, were processed using the program SCRUBBER (University of Utah).
Using homology modeling, HLA-DR amino acid residues critical for Lym-1 binding were mapped on a 3-D model of the HLA-DR10ß subunit (Balhorn et al, (2007) Clin. Cancer Res., 13(Suppl. 18): S5621-S5628). Cavities within the Lym-1 epitopic surface of the protein were identified using SPHGEN (Kuntz et al. (1982) J. Mol Biol. 161: 269-288; Desjarlais et al. (1988) J. Med. Chem., 31: 722-729). After computational ligand docking for each of the cavities, a combination of NMR spectroscopy, surface plasmon resonance (BIAcore 3000; Biacore, Piscataway, N.J.) and competitive binding experiments were used to confirm ligand binding to HLA-DR10 protein. […]

Jurkat's xenografts = test: Efficacy in mice with Jurkat's xenografts; type: in vivo, athymic Balb/c nu/nu mice
From the text: Seven- to nine-week old female, athymic Balb/c nu/nu mice (Harlan Sprague Dawley, Inc., Frederick, Md.) were maintained according to University of California animal care guidelines under pathogen-free conditions and on a normal ad libitum diet. Raji or Jurkat's cells harvested in log phase and having >95% viability were implanted (6×10^6 cells) subcutaneously in the lower abdomen 3-4 days after the mice were irradiated (400 cGy) to suppress xenograft rejection. When xenografts reached 20-500 mm3 by caliper measurement, the mice were sorted by xenograft volume into 4 groups: SHAL-treated mice with Raji xenografts, SHAL-treated mice with Jurkat's xenografts, untreated mice with Raji xenografts or untreated mice with Jurkat's xenografts. Each mouse was injected with 100 μl of PBS or 100 ng DOTA-chelated tridentate SHAL i.p. on days 0, 7 and 14. Xenograft volume and survival were monitored for ≥84 days. The mice were also weighed 2-3 times each week for 4 weeks then weekly. Blood counts were measured prior to each SHAL or PBS dose and weekly for 4 weeks after the final dose using a Z Series Coulter Counter (Beckman Coulter Inc., Hialeah, Fla.) and a phase contrast microscope (Zeiss, Jena, Germany).
Xenograft volumes were calculated by the formula for hemiellipsoids (DeNardo et al. (1997) Clin. Cancer Res. 3: 71-79). […] If a xenograft became >2000 mm3, the mouse was euthanized in accordance with University of California animal care guidelines and scored as a disease-related death.
Initial analysis compared response rates by exact tests and survival times by log-rank tests for untreated Raji and Jurkat's mice and found no significant differences, so these groups were pooled for subsequent analysis. Response rates for treated Raji, treated Jurkat's and untreated mice were compared by x^2 and exact tests. Survival times were censored at 84 days for mice who had not died or been euthanized because of tumor growth before that time. Times were summarized descriptively by Kaplan-Meier curves and median survival and 95% confidence limits were obtained by the product-limit estimate. The two treated groups were compared to the untreated using a log-rank test for homogeneity across groups, followed by a proportional hazards model to estimate the effect of treatment compared to no treatment. Analyses were carried out using SAS/SAT® software (SAS Institute, Inc. SAS/STAT Version 9.0. 2004. Cary, N.C.: SAS Institute). All tests were two-sided at level 0.05.

[1] = General safety study in healthy mice; type: in vivo; details: 4 weeks; for adverse effects / toxicity: up to 2000 times the efficacy dose i.p.
Procedure: Each of 3 groups of 7 healthy Balb/c mice were given PBS, 20 or 200 μg of DOTA-chelated SHAL i.p., that is, 200 or 2,000 times the SHAL efficacy dose. Immediately prior to intervention, the mice were observed, weighed and blood counts (red, white and platelets) obtained, then the mice were observed daily, weighed 3 times each week and blood counts measured weekly for 4 weeks after intervention.

[2] = 100 ng DOTA-chelated tridentate SHAL i.p. days 0, 7 and 14

Row | Compound | binding to isolated HLA-DR10 (in words) (HLA-DR10 protein) | Kd (HLA-DR10 protein; biotinylated versions of the SHALs immobilized on streptavidin chip, HLA-DR10 isolated from Raji cells) [nM] | SHAL binding to HLA-DR10 on Lym-1 addition (HLA-DR10 protein; isolated or recombinant HLA-DR10 protein) | Cure (Jurkat's xenografts; [2]) [%] | ORR (overall response rate) (Jurkat's xenografts; [2]) [%] | longest survival (FIG. 31) (Jurkat's xenografts; 100 ng SHAL i.p. once weekly for 3 consecutive weeks) [days] | effect of SHAL treatment on Jurkat's xenografts (Jurkat's xenografts; mouse, in vivo) | median survival time (Jurkat's xenografts; treated mice with Jurkat's xenografts) [days] | body weight ([1]; 20 or 200 μg DOTA-chelated SHAL i.p. (200 or 2,000 times efficacy dose)) | blood counts ([1]; 20 or 200 μg DOTA-chelated SHAL i.p.) | adverse effects / toxicity [1] | adverse effects / toxicity ([1]; listed as SHAL)
1 | CC(=O)NC(CCCNC(=N)N)C(=O)NC(CCCNC(=N)N)C(=O)NC(CCCNC(=N)N)C(=O)NC(CCCNC(=N)N)C(=O)NC(CCCNC(=N)N)C(=O)NC(CCCNC(=N)N)C(=O)NCCCCC(NC(=O)C(CCCCNC(=O)COCCOCCNC(=O)COCCOCCNC(=O)COCCOCCNC(=O)C(CCCCNC(=O)COCCOCCNC(=O)c1ccc(NC(=O)C(CCCNC(=N)N)NC(=O)c2ccccc2)cc1)NC(=O)C(NS(=O)(=O)c1ccc(N=Nc2ccc(N(C)C)cc2)cc1)C(C)C)NC(=O)COCCOCCNC(=O)COCCOCCNC(=O)COCCOCCNC(=O)C(CCCCNC(=O)COCCOCCNC(=O)c1ccc(NC(=O)C(CCCNC(=N)N)NC(=O)c2ccccc2)cc1)NC(=O)C(NS(=O)(=O)c1ccc(N=Nc2ccc(N(C)C)cc2)cc1)C(C)C)C(=O)NC(CCCCNC(=O)CN1CCN(CC(=O)O)CCN(CC(=O)O)CCN(CC(=O)O)CC1)C(=O)O (stereo not shown) [(DvLPBaPPP)2LArg6AcLLDo] | did not interfere with SHAL binding to the protein | ~34 |  |  |  |  |  |  |  |  |  | 
2 | CC(C)C(NS(=O)(=O)c1ccc(N=Nc2ccc(N(C)C)cc2)cc1)C(=O)NCCOCCOCC(=O)NC(CCCCNC(=O)C(CCCCNC(=O)CC(=O)Nc1ccccc1Oc1ncc(C(F)(F)F)cc1Cl)NC(=O)COCCOCCNC(=O)c1ccc(N2CCN(Cc3ccc(Cl)cc3)CC2)c([N+](=O)[O-])c1)C(=O)NCCOCCOCC(=O)NC(CCCCNC(=O)CN1CCN(CC(=O)O)CCN(CC(=O)O)CCN(CC(=O)O)CC1)C(=O)O (stereo not shown) [tridentate SHAL] | better than nanomolar |  | blocked by Lym-1 addition | 0 | 0 | ≤ 56 | not affected | 21 | gained weight | stable blood counts | no evidence for toxicity; also recorded: did not exhibit signs of adverse events | no adverse effects
